Consider 4 compounds from patent US4127675A, “4-(Alkylamino-2-hydroxypropoxy)-indenes and method of use” (Yamanouchi Pharmaceutical Co., Ltd., priority 1968, dated 1978).

Read-outs that look alike come from different tables or passages of the source.

For orientation: ED50 means the midpoint of the dose-response relation. In general, LD50 refers to the dose expected to kill half of the subjects tested. A low value points to greater toxicity.

Data set [1] has as its target T1, adrenergic β-receptor (Cavia porcellus, UniProt H0W3H1).
T1 construct: The atria obtained from a male Hartley guinea pig; from tissue; host or cells: isolated atria of male Hartley guinea pig
In words: Antagonism of l-isoproterenol-induced increase of atrial contraction, isolated guinea pig atria (Experiment 1). Details: species or system male Hartley guinea pig. The note with it: l-isoproterenol 5 × 10^-8 g./ml., 10 minutes previously. Here is the method:
The atria obtained from a male Hartley guinea pig weighing 300-500 g. were trimmed and placed in chambers containing Tyrode solution oxygenated with 95% oxygen and 5% carbon dioxide and maintained at 30° C.
Contractile force was recorded by an isometric lever connected to a strain gauge tension transducer. Antagonistic activity of the tested drugs on the 1-isoproterenol-induced increase of the atrial contraction was investigated.
The first control response was measured adding 1-isoproterenol to the bath fluid to a final concentration of 5 × 10^-8 g./ml. Then the preparation was washed and the same procedure was repeated after application of the drugs to be tested, i.e. 4-(3-isopropylamino-2-hydroxypropoxy)indene and 4-(3-isopropylamino-2-hydroxypropoxy)indane (final concentrations of 8 × 10^-9 g./ml. and 5 × 10^-8 g./ml.), 10 minutes previously.

For data set [2], the system named is heart devoid of autonomous nervous control. In words: Direct effect on heart rate of a heart devoid of autonomous nervous control, reserpinized, adrenalectomized, vagotomized rats (Experiment 2). The note with it: for Change of heart rate (%): + increase, - decrease. Type of data set: in vivo, Wistar rats. The protocol: Experiment 2 […] Both adrenal glands were removed and bilateral vagotomy in the neck was performed. […] (RM 100). In Table 2, the symbol + represents an increase in heart rate, while the symbol - represents a decrease in heart rate. The standard error is shown in parenthesis.

Data set [3] deals with T2, adrenergic β-receptor (Rattus norvegicus, UniProt P18090).
T2 construct: studied in reserpinized, vagotomized rats; from tissue; host or cells: heart in the living, anaesthetized rat (in vivo heart rate)
As to the kind of experiment: Blockade of isoproterenol-induced tachycardia in reserpinized, vagotomized rats (Experiment 3). Format: in vivo. The note with it: for Res: Response (percent increase of heart rate induced by 0.1 μg/kg l-isoproterenol): i.v., cumulative, Control = 100; for ED50: rat, iv, read-out: ED50 (dose producing 50% blockade of the positive chronotropic control response to l-isoproterenol). Here is the method: The effects of certain compounds on isoproterenol-induced tachycardia as well as on resting heart rate were studied in reserpinized, vagotomized rats. The rat was anaesthetized with pentobarbital 18 hours after treatment with reserpine (8 mg./kg., i.p.) and vagotomized bilaterally in the neck. Heart rate was recorded by a cardiotacho-meter (RT-2, Nihonkoden). […] Ten minutes after each dose of the compound an intravenous injection of l-isoproterenol (0.1 μg./kg.) was administered and the increase in heart rate was recorded. The dose producing 50% blockade of the positive chronotropic control response to l-isoproterenol (ED-50) was estimated in each experiment from curves obtained by plotting inhibition percentage against log cumulative dose.

Another data set has as its system resting heart rate. In words: Effect on resting (basic) heart rate in reserpinized, vagotomized rats (Experiment 3). Format: in vivo, rat. The note with it: i.v., cumulative. The protocol: The effects of certain compounds on isoproterenol-induced tachycardia as well as on resting heart rate were studied in reserpinized, vagotomized rats. The rat was anaesthetized with pentobarbital 18 hours after treatment with reserpine (8 mg./kg., i.p.) and vagotomized bilaterally in the neck. Heart rate was recorded by a cardiotacho-meter (RT-2, Nihonkoden). After the control response to l-isoproterenol (0.1 μg./kg., i.v.) was obtained, each compound tested was injected intravenously in such doses that the cumulative dose increased four-fold: 0.01-0.04-0.16-0.64-2.56 mg./kg., at 20 minute intervals. Ten minutes after each dose of the compound an intravenous injection of l-isoproterenol (0.1 μg./kg.) was administered and the increase in heart rate was recorded. The dose producing 50% blockade of the positive chronotropic control response to l-isoproterenol (ED-50) was estimated in each experiment from curves obtained by plotting inhibition percentage against log cumulative dose.
abbreviations; ^a) BHR : Basic heart rate (the heart rate just before
administration of l-isoproterenol, unit = beat per minute)

A short description of data set [4]: Acute intravenous toxicity in white mice. The settings on record: mouse, in vivo, injected intravenously.
Where [5] appears, read: final concentration 5 × 10^-8 g./ml.
[6] abbreviates: final concentration 8 × 10^-9 g./ml.
Where [7] appears, read: 0.01 mg./kg. i.v., 1 minute after.
Where [8] appears, read: 0.01 mg./kg. i.v., 5 minutes after.
The mark [9] stands for this setting: 0.01 mg./kg. i.v., 15 minutes after.
Where [10] appears, read: 0.01 mg./kg. i.v., 30 minutes after.
[11] abbreviates: 0.05 mg./kg. i.v., 1 minute after.
[12] abbreviates: 0.05 mg./kg. i.v., 5 minutes after.
Where [13] appears, read: 0.05 mg./kg. i.v., 15 minutes after.
Setting [14] is: 0.05 mg./kg. i.v., 30 minutes after.
Setting [15] is: 0.10 mg./kg. i.v., 1 minute after.
[16] abbreviates: 0.10 mg./kg. i.v., 5 minutes after.
Setting [17] is: 0.10 mg./kg. i.v., 15 minutes after.
Setting [18] is: 0.10 mg./kg. i.v., 30 minutes after.
Setting [19] is: cumulative dose, l-isoproterenol 0.1 μg./kg. i.v., ± standard error.

T2 sequence (P18090 whole entry): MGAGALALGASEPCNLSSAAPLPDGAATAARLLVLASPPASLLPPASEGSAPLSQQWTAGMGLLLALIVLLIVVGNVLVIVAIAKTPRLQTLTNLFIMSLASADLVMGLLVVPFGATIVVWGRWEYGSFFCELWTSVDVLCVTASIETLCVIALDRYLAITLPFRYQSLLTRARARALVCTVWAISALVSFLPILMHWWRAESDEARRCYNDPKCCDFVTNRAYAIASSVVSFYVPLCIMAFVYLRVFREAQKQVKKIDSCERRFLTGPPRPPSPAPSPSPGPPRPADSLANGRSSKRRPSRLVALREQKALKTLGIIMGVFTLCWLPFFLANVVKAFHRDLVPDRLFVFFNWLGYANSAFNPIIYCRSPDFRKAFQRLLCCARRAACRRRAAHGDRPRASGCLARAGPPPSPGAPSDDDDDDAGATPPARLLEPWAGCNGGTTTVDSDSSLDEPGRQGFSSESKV
T1 sequence (H0W3H1 1-470): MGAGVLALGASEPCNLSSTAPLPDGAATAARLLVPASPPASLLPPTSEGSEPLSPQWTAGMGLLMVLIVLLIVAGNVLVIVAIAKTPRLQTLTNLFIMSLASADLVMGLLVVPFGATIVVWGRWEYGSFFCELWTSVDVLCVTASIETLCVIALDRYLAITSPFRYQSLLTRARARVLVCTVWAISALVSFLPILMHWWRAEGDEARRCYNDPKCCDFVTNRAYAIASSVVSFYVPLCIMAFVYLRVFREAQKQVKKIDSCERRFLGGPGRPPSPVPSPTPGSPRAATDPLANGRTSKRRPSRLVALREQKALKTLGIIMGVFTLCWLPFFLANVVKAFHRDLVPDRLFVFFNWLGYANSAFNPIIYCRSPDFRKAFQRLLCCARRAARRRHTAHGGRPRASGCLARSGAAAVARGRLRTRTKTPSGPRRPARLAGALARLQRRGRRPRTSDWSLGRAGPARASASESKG

Take `CC(C)NCC(O)COc1cccc2c1C=CC2` (racemic) [4-(3-isopropylamino-2-hydroxypropoxy)indene]: the “Inhibition rate (%)” value at adrenergic β-receptor [1] (setting [5]) was 81.5%; at adrenergic β-receptor [1] (setting [6]), 30.7%. Further, the “Change of heart rate (%)” value is “+2.4%” in data set [2] (setting [7]); “+3.8%” in data set [2] (setting [8]); “+3.2%” in data set [2] (setting [9]); “+1.7%” in data set [2] (setting [10]); “+5.6%” in data set [2] (setting [11]); “+8.4%” in data set [2] (setting [12]). Further, the “Change of heart rate (%)” value in data set [2] (setting [13]) is “+8.7%”; in data set [2] (setting [14]), “+5.2%”; in data set [2] (setting [15]) it was “+1.5%”; in data set [2] (setting [16]), “+4.1%”; in data set [2] (setting [17]), “+3.5%”; in data set [2] (setting [18]), “+4.0%”. The “Res: Response (percent increase of heart rate induced by 0.1 μg/kg l-isoproterenol)” value on adrenergic β-receptor [3] (0.01 mg/kg) is listed as 74±3%; on adrenergic β-receptor [3] (0.04 mg/kg), 50±2%; at adrenergic β-receptor [3] (0.16 mg/kg), 23±2%; at adrenergic β-receptor [3] (0.64 mg/kg), 5±1%. Further, the ED50 at adrenergic β-receptor [3] (setting [19]) was determined as 0.039 ± 0.002 mg/kg. Moreover, the “BHR: Basic heart rate (just before administration of l-isoproterenol)” value (shortened to “BHR: Basic heart rate”) with resting heart rate (0.01 mg/kg) was determined as 235±12 beat per minute; with resting heart rate (0.04 mg/kg), 246±13 beat per minute; with resting heart rate (0.16 mg/kg), 245±14 beat per minute; in the data set on resting heart rate (0.64 mg/kg) it was 245±12 beat per minute. This compound also had an LD50 in data set [4] of 25 mg/kg.

As to `CC(C)NCC(O)COc1cccc2c1CCC2` (stereo not drawn) [4-(3-isopropylamino-2-hydroxypropoxy)indane], the “Inhibition rate (%)” value at adrenergic β-receptor [1] (setting [5]) is 88.4%; on adrenergic β-receptor [1] (setting [6]), 30.4%. The “Change of heart rate (%)” value in data set [2] (setting [7]) was -0.9%; in data set [2] (setting [8]), “+0.3%”; in data set [2] (setting [9]) it was -1.9%; in data set [2] (setting [10]) it was -1.7%; in data set [2] (setting [11]), -2.1%; in data set [2] (setting [12]), -2.0%. Moreover, the “Change of heart rate (%)” value was -2.0% in data set [2] (setting [13]); -4.6% in data set [2] (setting [14]); -5.9% in data set [2] (setting [15]); -8.7% in data set [2] (setting [16]); -8.7% in data set [2] (setting [17]); -5.4% in data set [2] (setting [18]). Also, the “effect on the cardiac function (in words)” value in data set [2] (Experiment 2) is listed as “deleterious effects on the cardiac function”. Further, the “Res: Response (percent increase of heart rate induced by 0.1 μg/kg l-isoproterenol)” value on adrenergic β-receptor [3] (0.04 mg/kg) is listed as 54±5%; on adrenergic β-receptor [3] (0.16 mg/kg), 33±14%; at adrenergic β-receptor [3] (0.64 mg/kg) it was 12±1%. In addition, the ED50 at adrenergic β-receptor [3] (setting [19]) came out at 0.065 ± 0.013 mg/kg. Further, the “BHR: Basic heart rate” value in the data set on resting heart rate (0.04 mg/kg) was found to be 245±15 beat per minute; with resting heart rate (0.16 mg/kg), 236±14 beat per minute; in the data set with resting heart rate (0.64 mg/kg) it was 238±17 beat per minute.

In the case of `CCC(C)NCC(O)COc1cccc2c1C=CC2` (stereo not drawn) [4-(3-sec-butylamino-2-hydroxypropoxy)indene], the “Res: Response (percent increase of heart rate induced by 0.1 μg/kg l-isoproterenol)” value amounted to 81±4% at adrenergic β-receptor [3] (0.01 mg/kg); 65±1% at adrenergic β-receptor [3] (0.04 mg/kg); 40±5% at adrenergic β-receptor [3] (0.16 mg/kg); 17±3% at adrenergic β-receptor [3] (0.64 mg/kg); 6±1% at adrenergic β-receptor [3] (2.56 mg/kg). In addition, the ED50 on adrenergic β-receptor [3] (setting [19]) was found to be 0.088 ± 0.011 mg/kg. In addition, the “BHR: Basic heart rate” value in the data set with resting heart rate (0.01 mg/kg) is 200±13 beat per minute; in the data set on resting heart rate (0.04 mg/kg), 218±13 beat per minute; in the data set on resting heart rate (0.16 mg/kg), 225±14 beat per minute; in the data set on resting heart rate (0.64 mg/kg), 236±16 beat per minute; in the data set with resting heart rate (2.56 mg/kg), 228±23 beat per minute.

For the compound `C=CCc1ccccc1OCC(O)CNC(C)C` (stereo not drawn) [alprenolol (Aptin), alprenolol, reference compound], the “Res: Response (percent increase of heart rate induced by 0.1 μg/kg l-isoproterenol)” value on adrenergic β-receptor [3] (0.01 mg/kg) was 65±3%; on adrenergic β-receptor [3] (0.04 mg/kg), 44±3%; on adrenergic β-receptor [3] (0.16 mg/kg), 17±3%; on adrenergic β-receptor [3] (0.64 mg/kg), 3±1%. Moreover, the ED50 on adrenergic β-receptor [3] worked out at 0.03 ± 0.003 mg/kg. Further, the “BHR: Basic heart rate” value in the data set with resting heart rate (0.01 mg/kg) was determined as 233±12 beat per minute; in the data set with resting heart rate (0.04 mg/kg) it was 247±11 beat per minute; with resting heart rate (0.16 mg/kg), 261±7 beat per minute; with resting heart rate (0.64 mg/kg) it was 262±4 beat per minute.
